Reference: patent EP0317105A2, “Phenylalanine derivative and its uses” (AJINOMOTO CO., INC., priority 1987, dated 1989)

How the values were obtained:
male ICR mice = test: Toxicity test: oral administration to mice, survival and LD50; assay type: in vivo; settings: for Number of living mice: among 10 head, observation after two weeks; for LD₅₀ values: oral, mice, in words, compared with the known absorption accelerator
Method: A known absorption accelerator, N-(α-fluoro-4-methylcinnamoyl)-L-phenylalanine, and the two absorption accelerators of this invention were each suspended in 0.5% solution of CMC sodium salt at different concentrations, each suspension was orally administered to male ICR mice of 4-week age ( each group consisting of 10 head ), and LD₅₀ values were measured based on the observations after two weeks. The result is summarized in Table 2, in which the figures show the number of living mice when 1.0 g/Kg and 3.0 g/Kg of the compounds were administered.

[1] = Activity test using mice: oral insulin co-administered with absorption accelerator, blood glucose and blood insulin measured; assay type: in vivo, female ICR-CDI mice; settings: insulin 0.5 U/10 g + absorption accelerator 3 mg/10 g, vs control group
Method: Each of the absorption accelerators prepared above was suspended in 0.5% CMC/0.05M Tris-HCl buffer ( pH 7.8 ), insulin was admixed to this suspension, and the resulting mixture was orally administered to a group of female ICR-CDI mice ( five head of 5- to 7-week age ) fasted for 18 hours ( insulin: 0.5 U/10 g, absorption accelerator: 3 mg/10 g ). The rate of reduction in blood glucose (%) and the factor of increase in the insuline level in the blood, in comparison with the data of the control group, were measured at definite intervals.

[2] = Activity test using dogs: oral gelatin capsules of insulin plus absorption accelerator, serum glucose measured; assay type: in vivo, male beagles; settings: 50 U/Kg insulin + 25 mg/Kg sodium salt of absorption accelerator, average of two dogs, compared with N-(α-fluoro-4-methylcinnamoyl)-L-phenylalanine
Method: An absorption acceleration test was conducted using dogs to compare the absorption accelerators of this invention with a known absorption accelerator, N-(α-fluoro-4-methylcinnamoyl)-L-phenylalanine.
Gelatin capsules containing 50 U/Kg insulin and 25 mg/Kg sodium salt of absorption accelerator were orally administered to male beagles of 6- to 8-month age fasted for 18 hours. In this test, the same two dogs were used for each of test samples.
A blood sample was taken from each dog at definite intervals from the peripheral vein in a paw, the amount of glucose in the serum was measured, and the average of two head was calculated. The result is sumarized in the figure.

Structure (SMILES) | Number of living mice (male ICR mice; 1.0 g/Kg oral) | Number of living mice (male ICR mice; 3.0 g/Kg oral) | Factor of increase in blood-insulin level ([1]; 15 minutes) | Rate of reduction in blood glucose level ([1]; 15 minutes) | Factor of increase in blood-insulin level ([1]; 30 minutes) | Rate of reduction in blood glucose level ([1]; 30 minutes) | Rate of reduction in blood glucose level ([1]; 60 minutes) | effect of reducing the glucose level in the serum [2] | LD₅₀ values (male ICR mice) | Factor of increase in blood-insulin level ([1]; 60 minutes, "-" = no increase in blood insulin level was observed)
Cc1ccc(C=C(F)C(=O)N[C@@H](Cc2ccccc2)C(=O)O)cc1 [N-(α-fluoro-4-methylcinnamoyl)-L-phenylalanine, reference compound] | 10 | 6 | – | – | – | – | – | – | – | –
Cc1ccc(C(Cl)=CC(=O)N[C@H](Cc2ccccc2)C(=O)O)cc1 [N-(β-chloro-4-methylcinnamoyl)-D-phenylalanine] | 10 | 6 | 2) 2.1 | 1) 35.7% | 2) 3.3 | 1) 47.8% | 1) 42.8% | far higher effect of reducing the glucose level in the serum over longer periods | equal to, or higher than, that of the known absorption accelerator | –
Cc1ccc(C(Cl)=CC(=O)N[C@@H](Cc2ccccc2)C(=O)O)cc1 [N-(β-chloro-4-methylcinnamoyl)-L-phenylalanine] | 10 | 10 | 2) 10.5 | 1) 42.1% | 2) 2.0 | 1) 21.6% | 1) 12.2% | far higher effect of reducing the glucose level in the serum over longer periods | equal to, or higher than, that of the known absorption accelerator | 2) 2.1
